Reference: patent publication US20150336889A1, “INDOLE DERIVATIVES, PHARMACEUTICAL COMPOSITIONS CONTAINING SUCH INDOLES AND THEIR USE AS DNA METHYLATION MODULATORS” (IKERCHEM, S.L., priority 2012, published 2015)

Tests used:
Human DNMT1 = target: T1, Human DNMT1 (Homo sapiens, UniProt P26358); test: DNMT1 enzymatic activity inhibition, radioisotope-based 3H-SAM filter binding assay; assay type: biochemical; conditions: 1 μM SAM, 25 nM DNMT1, 0.005 mg/ml Poly(dI-dC), 30° C. 1 hour, 10-dose
T1 construct: a-a 2-1632, with N-terminal GST tag; GST (N)
Procedure: The inhibition of the enzymatic activity of DNMT1 was tested using low volume radioisotope-based assay which uses tritium-labeled AdoMet (^3H-SAM) as a methyl donor. Inhibitors diluted in DMSO were added by using acoustic technology (Echo550, Labcyte Inc. Sunnyvale, Calif.) into enzyme/substrate mixture in nano-liter range. The reaction was initiated by the addition of ^3H-SAM, and incubated at 30° C. for 1 hour. Total final methylations on the substrate poly(dI-dC) were detected by a filter binding approach. Data analysis was performed using GraphPad Prism software (La Jolla, Calif.) for IC50 curve fits.

MDA-MB-468 = test: Cancer cell growth inhibition, MDA-MB-468; assay type: cell-based; conditions: Homo sapiens; Breast, MDA-MB-468, cell viability, 72 h
Procedure: (§1) Cell culture-based assays were used to evaluate the ability of compounds of the invention to inhibit cancer cell growth inhibition.
(§2) Cells were obtained from the American Type Culture Collection (ATCC) and European Collection of Cell Cultures (ECACC).
(§3) Cells were thawed in their appropriate media plus supplements (see table below). Cells were passaged at confluence by washing once in HBSS cation-free followed by a 3 minutes incubation with trypsin ([0.5 μg/ml]/EDTA [0.2 μg/ml]) (Gibco-BRL, 15400054) solution in HBSS at 37° C. (except non-adherent cell lines), and transferred to their appropriate media plus supplements. Prior to seeding at defined cell concentration, cells were recovered in medium, centrifuged and taken up in medium, and counted.
(§4) Cells were plated at 3000/5000/10000 cells/well in 100 μl media in tissue culture 96 well plates (Cultek). After 24 h, media was supplemented by 100 μl/well of diluted IPDNs at 100 μM.
(§5) The Hexosaminidase assay was used for the adherent cell lines, whereas the AlamarBlue® assay was used for the non-adherent cell lines.
(§6) Dose-response curves were generated by serial dilutions (1:1) of the compounds. […] Reagent blanks, containing media plus colorimetric reagent without cells were run on each plate. Blank values were subtracted from test values and were routinely 5-10% of uninhibited control values. Plates were incubated 72 h, and living cell number was determined by AlamarBlue® and Hexosaminidase test. The advantages of using those assays are that both can be done in the same microwell plate. AlamarBlue® assay: plates were incubated 72 h and living cell number was determined by AlamarBlue (Biosource DAL1100). After 4 h incubation at 37° C., relative fluorescent intensity, which correlates with the number of living cells, was read in a Cytofluor plate reader (Millipore) at 535/590 nm (Excitation/emission). The hexosaminidase activity was measured according to the following protocol: the media was removed and cells were washed once with PBS. […]

PC3 = test: Cancer cell growth inhibition, PC3; assay type: cell-based; conditions: Homo sapiens, PC-3; Prostate, PC3, cell viability, 72 h
Procedure: as §1, §2, §3, §4, §5
(§7) Dose-response curves were generated by serial dilutions (1:1) of the compounds. […] Reagent blanks, containing media plus colorimetric reagent without cells were run on each plate. Blank values were subtracted from test values and were routinely 5-10% of uninhibited control values. Plates were incubated 72 h, and living cell number was determined by AlamarBlue® and Hexosaminidase test. The advantages of using those assays are that both can be done in the same microwell plate. AlamarBlue® assay: plates were incubated 72 h and living cell number was determined by AlamarBlue (Biosource DAL1100). After 4 h incubation at 37° C., relative fluorescent intensity, which correlates with the number of living cells, was read in a Cytofluor plate reader (Millipore) at 535/590 nm (Excitation/emission). The hexosaminidase activity was measured according to the following protocol: the media was removed and cells were washed once with PBS.
(§8) Data analysis was done by calculating the percentage of cell viability normalized in front of negative control values, which were considered as a 100%. The curve was adjusted using a sigmoidal dose-response (variable slope) equation and EC50 values were obtained from the equation
(§9) where, X is the logarithm of concentration. Y is the response. Bottom is the Y value at the bottom plateau Top is the Y value at the top plateau LogEC50 is the X value when the response is halfway between Bottom and Top. With different kinds of variables, this variable is sometimes called ED50 (effective dose, 50%), or IC50 (inhibitory concentration, 50%, used when the curve goes downhill).

LnCaP = test: Cancer cell growth inhibition, LnCaP; assay type: cell-based; conditions: Homo sapiens, Prostate, cell viability, 72 h
Procedure: as §1, §2, §3, §4, §5, §7, §8, §9

HCT-116 = test: Cancer cell growth inhibition, HCT-116; assay type: cell-based; conditions: Homo sapiens; Colorectal, HCT-116, cell viability, 72 h
Procedure: as §1, §2, §3, §4, §5, §7, §8, §9

HT-29 = test: Cancer cell growth inhibition, HT-29; assay type: cell-based; conditions: Homo sapiens; Colorectal, HT-29, cell viability, 72 h
Procedure: as §1, §2, §3, §4, §5, §6

A-549 = test: Cancer cell growth inhibition, A-549; assay type: cell-based; conditions: Homo sapiens, A549; Lung, A-549, cell viability, 72 h
Procedure: as §1, §2, §3, §4, §5, §7, §8, §9

NCI-H358 = test: Cancer cell growth inhibition, NCI-H358; assay type: cell-based; conditions: Homo sapiens; Lung, NCI-H358, cell viability, 72 h
Procedure: as §1, §2, §3, §4, §5, §7, §8, §9

Panc-1 = test: Cancer cell growth inhibition, Panc-1; assay type: cell-based; conditions: Homo sapiens; Pancreatic, Panc-1, cell viability, 72 h
Procedure: as §1, §2, §3, §4, §5, §7, §8, §9

MDA-MB-435 = test: Cancer cell growth inhibition, MDA-MB-435; assay type: cell-based; conditions: Homo sapiens; Melanoma, MDA-MB-435, cell viability, 72 h
Procedure: as §1, §2, §3, §4, §5, §7, §8, §9

143B = test: Cancer cell growth inhibition, 143B; assay type: cell-based; conditions: Homo sapiens, Osteosarcoma, cell viability, 72 h
Procedure: as §1, §2, §3, §4, §5, §7, §8, §9

Daoy = test: Cancer cell growth inhibition, Daoy; assay type: cell-based; conditions: Homo sapiens, Brain, cell viability, 72 h
Procedure: as §1, §2, §3, §4, §5, §7, §8, §9

U-87MG = test: Cancer cell growth inhibition, U-87MG; assay type: cell-based; conditions: Homo sapiens, Brain, cell viability, 72 h
Procedure: as §1, §2, §3, §4, §5, §7, §8, §9

A-431 = test: Cancer cell growth inhibition, A-431; assay type: cell-based; conditions: Homo sapiens; Epidermoid, A-431, cell viability, 72 h
Procedure: as §1, §2, §3, §4, §5, §7, §8, §9

CCFR-CEM = test: Cancer cell growth inhibition, CCFR-CEM; assay type: cell-based; conditions: Hematologic, cell viability, 72 h
Procedure: as §1, §2, §3, §4, §5, §7, §8, §9

Jurkat = test: Cancer cell growth inhibition, Jurkat; assay type: cell-based; conditions: Homo sapiens, Hematologic, cell viability, 72 h
Procedure: as §1, §2, §3, §4, §5, §7, §8, §9

RAMOS = test: Cancer cell growth inhibition, RAMOS; assay type: cell-based; conditions: Homo sapiens, Hematologic, cell viability, 72 h
Procedure: as §1, §2, §3, §4, §5, §7, §8, §9

MCF-7 = test: Cancer cell growth inhibition, MCF-7; assay type: cell-based; conditions: Homo sapiens, MCF7; Breast, MCF-7, cell viability, 72 h
Procedure: as §1, §2, §3, §4, §5, §7, §8, §9

SK-BR-3 = test: Cancer cell growth inhibition, SK-BR-3; assay type: cell-based; conditions: Homo sapiens; Breast, SK-BR-3, cell viability, 72 h
Procedure: as §1, §2, §3, §4, §5, §6

NCI-H1975 = test: Cancer cell growth inhibition, NCI-H1975; assay type: cell-based; conditions: Homo sapiens; Lung, NCI-H1975, cell viability, 72 h
Procedure: as §1, §2, §3, §4, §5, §7, §8, §9

HT-1080 = test: Cancer cell growth inhibition, HT-1080; assay type: cell-based; conditions: Homo sapiens; HT-1080, cell viability, 72 h
Procedure: as §1, §2, §3, §4, §5, §7, §8, §9

MiaPaCa-2 = test: Cancer cell growth inhibition, MiaPaCa-2; assay type: cell-based; conditions: Homo sapiens, MIA PaCa-2; Pancreatic, MiaPaCa-2, cell viability, 72 h
Procedure: as §1, §2, §3, §4, §5, §7, §8, §9

BxPC3 = test: Cancer cell growth inhibition, BxPC3; assay type: cell-based; conditions: Homo sapiens, BXPC-3; Pancreatic, BxPC3, cell viability, 72 h
Procedure: as §1, §2, §3, §4, §5, §6

U-373MG = test: Cancer cell growth inhibition, U-373MG; assay type: cell-based; conditions: Homo sapiens, U373 MG, Brain, cell viability, 72 h
Procedure: as §1, §2, §3, §4, §5, §6

HeLa = test: Cancer cell growth inhibition, HeLa; assay type: cell-based; conditions: Homo sapiens, Cervical, cell viability, 72 h
Procedure: as §1, §2, §3, §4, §5, §6

T1 sequence (P26358 2-1632 isoform P26358-2): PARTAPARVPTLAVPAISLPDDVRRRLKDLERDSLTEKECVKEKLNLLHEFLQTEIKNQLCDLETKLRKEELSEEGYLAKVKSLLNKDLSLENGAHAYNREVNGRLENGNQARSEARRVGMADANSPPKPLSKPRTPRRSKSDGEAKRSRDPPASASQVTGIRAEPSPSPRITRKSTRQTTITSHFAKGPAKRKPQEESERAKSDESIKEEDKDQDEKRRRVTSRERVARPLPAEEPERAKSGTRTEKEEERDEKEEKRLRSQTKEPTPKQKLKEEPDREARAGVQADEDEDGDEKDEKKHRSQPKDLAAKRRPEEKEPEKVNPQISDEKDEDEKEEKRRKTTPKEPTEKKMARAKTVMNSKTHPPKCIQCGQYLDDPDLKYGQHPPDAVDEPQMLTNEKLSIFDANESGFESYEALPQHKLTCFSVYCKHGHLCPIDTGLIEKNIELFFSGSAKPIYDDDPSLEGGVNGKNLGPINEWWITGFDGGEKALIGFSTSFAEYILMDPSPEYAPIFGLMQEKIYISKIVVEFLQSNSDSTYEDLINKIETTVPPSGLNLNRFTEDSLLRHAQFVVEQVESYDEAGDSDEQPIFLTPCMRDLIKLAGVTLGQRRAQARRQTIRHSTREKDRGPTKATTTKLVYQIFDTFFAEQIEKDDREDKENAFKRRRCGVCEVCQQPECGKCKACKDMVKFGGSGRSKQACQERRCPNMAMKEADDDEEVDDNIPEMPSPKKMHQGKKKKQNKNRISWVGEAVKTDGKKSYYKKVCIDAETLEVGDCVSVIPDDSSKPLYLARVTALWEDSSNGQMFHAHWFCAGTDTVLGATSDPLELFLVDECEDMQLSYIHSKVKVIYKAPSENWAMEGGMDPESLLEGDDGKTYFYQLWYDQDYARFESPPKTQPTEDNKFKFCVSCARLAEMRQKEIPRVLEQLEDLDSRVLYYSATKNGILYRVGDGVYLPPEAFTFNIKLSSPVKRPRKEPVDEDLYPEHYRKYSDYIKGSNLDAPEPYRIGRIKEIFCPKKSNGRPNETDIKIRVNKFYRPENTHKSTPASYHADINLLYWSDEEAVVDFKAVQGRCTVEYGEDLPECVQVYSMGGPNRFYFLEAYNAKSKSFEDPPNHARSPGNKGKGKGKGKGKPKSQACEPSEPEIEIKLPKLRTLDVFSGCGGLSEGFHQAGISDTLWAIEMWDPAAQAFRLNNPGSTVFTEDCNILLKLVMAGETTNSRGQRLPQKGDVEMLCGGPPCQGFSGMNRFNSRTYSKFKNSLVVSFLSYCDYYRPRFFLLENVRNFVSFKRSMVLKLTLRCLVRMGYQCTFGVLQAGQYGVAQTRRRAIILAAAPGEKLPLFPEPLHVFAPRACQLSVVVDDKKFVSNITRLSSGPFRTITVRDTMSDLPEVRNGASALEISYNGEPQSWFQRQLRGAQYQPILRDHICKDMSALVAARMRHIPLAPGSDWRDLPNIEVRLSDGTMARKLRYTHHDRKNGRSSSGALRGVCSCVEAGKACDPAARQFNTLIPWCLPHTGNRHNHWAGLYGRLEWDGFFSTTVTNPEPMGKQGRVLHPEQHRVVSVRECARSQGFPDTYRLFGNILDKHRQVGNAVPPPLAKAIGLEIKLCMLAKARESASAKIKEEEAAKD

IC50 (Human DNMT1) [µM]	EC50 (LnCaP) [µM]	EC50 (HCT-116) [µM]	EC50 (A-549) [µM]	EC50 (NCI-H358) [µM]	EC50 (Panc-1) [µM]	EC50 (MDA-MB-435) [µM]	EC50 (Daoy) [µM]	EC50 (U-87MG) [µM]	EC50 (A-431) [µM]	EC50 (CCFR-CEM) [µM]	EC50 (Jurkat) [µM]	EC50 (RAMOS) [µM]	SMILES	further results
6.85	27	96	93	50	55	23	50	22	59	34	56	55	COc1cc(OC)c2c(-c3ccc(O)c(O)c3)cn(CC(=O)c3ccc(O)c(O)c3)c2c1 [Example 8, 1-(3,4-dihydroxyphenyl)-2-[3-(3,4-dihydroxyphenyl)-4,6-dimethoxy-1H-indol-1-yl]ethanone]	EC50 (MDA-MB-468): 94 µM; EC50 (PC3): 48 µM; EC50 (HT-29): 59 µM; EC50 (143B): 19 µM
13.8	28	51	97	11	27	14	47	20	30	45	24	51	COc1ccc2c(-c3ccc(O)c(O)c3)cn(CC(=O)c3ccc(O)c(O)c3)c2c1 [Example 4, 1-(3,4-dihydroxyphenyl)-2-[3-(3,4-dihydroxyphenyl)-6-methoxy-1H-indol-1-yl]ethanone]	EC50 (MCF-7): 30 µM; EC50 (SK-BR-3): 20 µM; EC50 (NCI-H1975): 46 µM; EC50 (HT-1080): 31 µM; EC50 (MiaPaCa-2): 66 µM; EC50 (BxPC3): 53 µM; EC50 (U-373MG): 21 µM; EC50 (HeLa): 36 µM
